From US4547521A, “16-Methoxy-16-methyl prostaglandin E1 derivatives, a process for preparing them and their use as gastroprotective agents” (Gruppo Lepetit S.p.A., priority 1979, dated 1985)

What was measured:
[1] = tested on: gastric hypersecretion induced by histamine; assay: Inhibition of histamine-induced gastric hypersecretion in anesthetized perfused-stomach rats (Ghosh and Schild), intravenous; type: in vivo; settings: i.v., histamine 1.5 mg/kg/h
Experimental: The compounds of the present invention are potent inhibitors of also gastric hypersecretion also when administered intravenously. This has been confirmed by evaluating the effects, on gastric hypersecretion induced by histamine, produced by a single intravenous administration to anesthetized rats of the compounds of the present invention. The experiments were carried out essentially according to the methodology described by Ghosh and Schild in Brit. J. Pharm. (1958), 13, 54-61. According to this technique the rat is anesthetized with urethane and its stomach is perfused with a dilute sodium hydroxide solution (N/4000 NaOH at a rate of about 1 ml/min) by way of the oesophagus. The pH of the fluid emerging from a cannula in the pylorus is continuously recorded by means of a glass-electrode connected to a direct reading pH-meter and thence to a recorder. In passing through the stomach, the perfusate collects sufficient buffer to act as an approximately linear buffer system over the relevant range, so that the change in pH becomes a measure of acid secretion.
When the N/4000 NaOH solution is collected after having passed through the unstimulated stomach it gives an initial value of about 6-6.5 (pHunstimulated stomach). A secretory stimulant, histamine in the present case, is then administered intravenously by continuous infusion at a dose of 1.5 mg/kg/h. After a few minutes the pH begins to fall and after about 10 to 20 minutes the secretory effect reaches its maximum and the pH its lowest value (pHhistamine stimulated stomach) which, owing to the continuous infusion of histamine, remains constant. The compounds to be tested are then administered intravenously and the pH is continuously recorded. By considering the highest pH value recorded, which evidences the maximum antisecretory effect reached with the test compound (pHM.A.E.) and using the following equation [formula] the percent inhibition of gastric acid secretion may be easily calculated.

gastric acid secretion = assay: Inhibition of gastric acid secretion in dogs, histamine at fixed dose of 160 μg/kg/h, oral; type: in vivo, mongrel dogs; settings: histamine fixed dose 160 μg/kg/h
Experimental: The compounds of the present invention are also potent inhibitors of the gastric secretion when they are administered to laboratory animals by the oral route. […] The gastric antisecretory properties of these compounds when administered per os were evaluated on the basis of their effectiveness in inhibiting the hyperacidity induced by histamine in dogs. Histamine, which is a potent stimulator of the acidic gastric secretion (see Bertaccini et al., Eur. Journ. Pharmacol., 28, 360, 1974), was administered intravenously by continuous infusion during the experiments.
A group of five mongrel dogs was used in the experiment. […]
To evaluate the gastric antisecretory oral activity of the compounds of the invention, they were administered by gavage into the main stomach at a given dosage, expressed as μg/kg/h, dissolved in 1 ml of physiological solution, 60 minutes before the secreting agent. […]
The compounds of the present invention are potent inhibitors of also gastric hypersecretion also when administered intravenously. […] The pH of the fluid emerging from a cannula in the pylorus is continuously recorded by means of a glass-electrode connected to a direct reading pH-meter and thence to a recorder. […]

[2] = tested on: gastric ulcers caused by indomethacin; assay: Cytoprotective activity: inhibition of gastric ulcers caused by indomethacin in rats, oral; type: in vivo; settings: indomethacin i.p.
Experimental: More particularly, the cytoprotective activity of the compounds of the present invention was evaluated on the basis of their effectiveness in inhibiting the formation and reducing the severity of gastric ulcers in rats caused by the administration of a high dose of 1-(p-chlorobenzoyl)-5-methoxy-2-methyl-3-indolyl-acetic acid (indomethacin). The cytoprotective activity occurred at oral doses which are by far lower than those which cause inhibition of the gastric acid secretion. In these experiments the rats were deprived of food the day before the beginning of the experiments but water was given ad libitum. The compounds to be tested were administered by the oral route as a suspension in 0.5% aqueous methocel solution (5 animals/dose), while indomethacin was administered intraperitoneally at […] in the same vehicle. Another group of rats (controls) was administered only with the ulcerogenic agent. The cytoprotective properties of the compounds of this invention were then expressed as "percent inhibition of the ulcers with respect to controls", which can be easily calculated by the following ratio: [formula] wherein A.U.D.(controls) is the average ulceration degree of the stomachs of the controls and A.U.D.(treated animals) is the average ulceration degree of the stomachs of the animals which received both indomethacin and the compound to be tested.
The A.U.D.s are calculated according to the method described by Thuillier et al. Chim. Ther., 3, 53, 1968, by examining the stomachs of the laboratory animals for possible ulcerations and assigning a score from 0 to 4 which depends on the number and the severity of the observed ulcerations: 0 indicates absence of any ulceration on the gastric wall; 4 indicates perforating ulcerations. A single ulceration degree (S.U.D.) is then calculated for each single stomach. The sum of the S.U.D.s divided by the number of the animals affords the A.U.D. of the stomachs of each group of animals.

CCCCC(C)(OC)C(O)/C=C/[C@H]1[C@H](O)CC(=O)[C@@H]1CCCCCCC(=O)OC (single isomer, unassigned) [Example 1F, 11α,15-dihydroxy-16-methoxy-16-methyl-9-oxo-prosta-13(E)-ene-1-oic acid methyl ester]
% Inhibition of the acid gastric secretion ([1]; 2.5 μg/kg): 15%
% Inhibition of the acid gastric secretion ([1]; 10 μg/kg): 63%
% Inhibition of the acid gastric secretion ([1]; 20 μg/kg): 90%
% Inhibition of the acid gastric secretion ([1]; 50 μg/kg): 100%
block of gastric acid secretion (gastric acid secretion): about 60%
percent inhibition of the ulcers with respect to controls ([2]; 3 μg/kg (lowest dose tested)): about 43%
ED50 ([2]; Rattus norvegicus, calculated by extrapolation, read-out: ED50 (dose which provokes an inhibition of the ulcers with respect to controls of 50%)): 6 µg/kg
cytoprotective activity (in words) [2]: very active even at very low doses
